Experimental data published in the NIST ThermoML archive (doi:10.1016/j.fluid.2014.09.014).

Experiment: refractive index (other wavelength) (dimensionless); xn = mol fraction of the nth substance listed
Settings: 101 kPa, Liquid, Standard Abbe refractometry

CC(C)OC(C)C [diisopropyl ether] + CO
Settings	refractive index
293.15 K, Wavelength=632.8 nm, x2 = 0.804	1.34816
293.15 K, Wavelength=632.8 nm, x2 = 0.807	1.34801
293.15 K, Wavelength=632.8 nm, x2 = 0.8727	1.34273
293.15 K, Wavelength=632.8 nm, x2 = 0.9233	1.3359
293.15 K, Wavelength=632.8 nm, x2 = 0.9253	1.33772
293.15 K, Wavelength=632.8 nm, x2 = 0.9527	1.33457
293.15 K, Wavelength=632.8 nm, x2 = 0.9773	1.33112
293.15 K, Wavelength=632.8 nm, x2 = 0.989	1.33
293.15 K, Wavelength=632.8 nm, x2 = 0.9964	1.32856
293.15 K, Wavelength=644 nm, x2 = 0	1.36644
293.15 K, Wavelength=644 nm, x2 = 0.0423	1.36648
293.15 K, Wavelength=644 nm, x2 = 0.0424	1.3664
293.15 K, Wavelength=644 nm, x2 = 0.082	1.36644
293.15 K, Wavelength=644 nm, x2 = 0.0822	1.36633
293.15 K, Wavelength=644 nm, x2 = 0.1171	1.36619
293.15 K, Wavelength=644 nm, x2 = 0.1271	1.36622
293.15 K, Wavelength=644 nm, x2 = 0.1827	1.36579
293.15 K, Wavelength=644 nm, x2 = 0.2162	1.36556
293.15 K, Wavelength=644 nm, x2 = 0.251	1.36579
293.15 K, Wavelength=644 nm, x2 = 0.3298	1.36482
293.15 K, Wavelength=644 nm, x2 = 0.3577	1.36338
293.15 K, Wavelength=644 nm, x2 = 0.4497	1.36251
293.15 K, Wavelength=644 nm, x2 = 0.4525	1.36301
293.15 K, Wavelength=644 nm, x2 = 0.5543	1.36055
293.15 K, Wavelength=644 nm, x2 = 0.609	1.35745
293.15 K, Wavelength=644 nm, x2 = 0.6529	1.35595
293.15 K, Wavelength=644 nm, x2 = 0.7504	1.35211
293.15 K, Wavelength=644 nm, x2 = 0.804	1.34788
293.15 K, Wavelength=644 nm, x2 = 0.807	1.34773
293.15 K, Wavelength=644 nm, x2 = 0.8727	1.34246
293.15 K, Wavelength=644 nm, x2 = 0.9233	1.33564
293.15 K, Wavelength=644 nm, x2 = 0.9253	1.33746
293.15 K, Wavelength=644 nm, x2 = 0.9527	1.33431
293.15 K, Wavelength=644 nm, x2 = 0.9773	1.33086
293.15 K, Wavelength=644 nm, x2 = 0.989	1.32975
293.15 K, Wavelength=644 nm, x2 = 0.9964	1.32831
293.15 K, Wavelength=706.5 nm, x2 = 0	1.36501
293.15 K, Wavelength=706.5 nm, x2 = 0.0423	1.36504
293.15 K, Wavelength=706.5 nm, x2 = 0.0424	1.36476
293.15 K, Wavelength=706.5 nm, x2 = 0.082	1.365
293.15 K, Wavelength=706.5 nm, x2 = 0.0822	1.36487
293.15 K, Wavelength=706.5 nm, x2 = 0.1171	1.36476
293.15 K, Wavelength=706.5 nm, x2 = 0.1271	1.36479
293.15 K, Wavelength=706.5 nm, x2 = 0.1827	1.36436
293.15 K, Wavelength=706.5 nm, x2 = 0.2162	1.36414
293.15 K, Wavelength=706.5 nm, x2 = 0.251	1.36436
293.15 K, Wavelength=706.5 nm, x2 = 0.3298	1.3634
293.15 K, Wavelength=706.5 nm, x2 = 0.3577	1.36197
293.15 K, Wavelength=706.5 nm, x2 = 0.4497	1.3611
293.15 K, Wavelength=706.5 nm, x2 = 0.4525	1.3616
293.15 K, Wavelength=706.5 nm, x2 = 0.522	1.35939
293.15 K, Wavelength=706.5 nm, x2 = 0.5543	1.35915
293.15 K, Wavelength=706.5 nm, x2 = 0.609	1.35606
293.15 K, Wavelength=706.5 nm, x2 = 0.6529	1.35456
293.15 K, Wavelength=706.5 nm, x2 = 0.804	1.34652
293.15 K, Wavelength=706.5 nm, x2 = 0.807	1.34638
293.15 K, Wavelength=706.5 nm, x2 = 0.8727	1.34113
293.15 K, Wavelength=706.5 nm, x2 = 0.9233	1.33435
293.15 K, Wavelength=706.5 nm, x2 = 0.9253	1.33617
293.15 K, Wavelength=706.5 nm, x2 = 0.9527	1.33303
293.15 K, Wavelength=706.5 nm, x2 = 0.9773	1.32963
293.15 K, Wavelength=706.5 nm, x2 = 0.989	1.32951
293.15 K, Wavelength=706.5 nm, x2 = 0.9964	1.32708
298.15 K, Wavelength=40.47 nm, x2 = 0	1.37607
298.15 K, Wavelength=40.47 nm, x2 = 0.0423	1.37664
298.15 K, Wavelength=40.47 nm, x2 = 0.0424	1.37602
298.15 K, Wavelength=40.47 nm, x2 = 0.082	1.37599
298.15 K, Wavelength=40.47 nm, x2 = 0.0822	1.37598
298.15 K, Wavelength=40.47 nm, x2 = 0.1171	1.3758
298.15 K, Wavelength=40.47 nm, x2 = 0.1271	1.37584
298.15 K, Wavelength=40.47 nm, x2 = 0.1827	1.37543
298.15 K, Wavelength=40.47 nm, x2 = 0.2162	1.37664
298.15 K, Wavelength=40.47 nm, x2 = 0.251	1.37352
298.15 K, Wavelength=40.47 nm, x2 = 0.3298	1.37448
298.15 K, Wavelength=40.47 nm, x2 = 0.3577	1.37299
298.15 K, Wavelength=40.47 nm, x2 = 0.4497	1.37205
298.15 K, Wavelength=40.47 nm, x2 = 0.4525	1.37262
298.15 K, Wavelength=40.47 nm, x2 = 0.522	1.37025
298.15 K, Wavelength=40.47 nm, x2 = 0.5543	1.3698
298.15 K, Wavelength=40.47 nm, x2 = 0.609	1.36677
298.15 K, Wavelength=40.47 nm, x2 = 0.6529	1.36523
298.15 K, Wavelength=40.47 nm, x2 = 0.7504	1.36122
298.15 K, Wavelength=40.47 nm, x2 = 0.804	1.35681
298.15 K, Wavelength=40.47 nm, x2 = 0.807	1.3567
298.15 K, Wavelength=40.47 nm, x2 = 0.8727	1.35132
298.15 K, Wavelength=40.47 nm, x2 = 0.9233	1.34416
298.15 K, Wavelength=40.47 nm, x2 = 0.9253	1.34607
298.15 K, Wavelength=40.47 nm, x2 = 0.9527	1.34281
298.15 K, Wavelength=40.47 nm, x2 = 0.9773	1.33922
298.15 K, Wavelength=40.47 nm, x2 = 0.989	1.33798
298.15 K, Wavelength=40.47 nm, x2 = 0.9964	1.33656
298.15 K, Wavelength=435.8 nm, x2 = 0	1.37308
298.15 K, Wavelength=435.8 nm, x2 = 0.0423	1.37305
